According to the NIST ThermoML archive (doi:10.1016/j.jct.2012.02.023):

Test: xn = mol fraction of the nth substance listed
Conditions: 101 kPa, Liquid; for speed of sound: Sing-around technique in a fixed-path interferometer; for mass density: Vibrating tube method

CCCC[n+]1cccc(C)c1.F[B-](F)(F)F [1-butyl-3-methylpyridinium tetrafluoroborate] + CCO
Conditions	mass density, 293.15 K [kg/m3]	mass density, 303.15 K [kg/m3]	mass density, 313.15 K [kg/m3]	mass density, 323.15 K [kg/m3]	speed of sound, 293.15 K [m/s]	speed of sound, 303.15 K [m/s]	speed of sound, 313.15 K [m/s]	speed of sound, 323.15 K [m/s]
x1 = 0.0572	861.245	852.837	844.506	835.724	1206	1177	1146.5	1116.4
x1 = 0.0964	900.833	892.417	884.287	875.61	1239.4	1212.4	1183.6	1155.2
x1 = 0.1466	942.807	934.902	926.796	918.466	1281	1254.5	1228.4	1202
x1 = 0.1964	977.495	969.562	961.571	953.451	1320	1294.8	1269.1	1244.2
x1 = 0.2431	1004.66	996.702	988.807	980.836	1355.1	1330	1304.6	1279.3
x1 = 0.2998	1032.24	1024.76	1016.86	1009.22	1390.6	1365.5	1340.4	1315.4
x1 = 0.3966	1069.96	1062.42	1055	1047.46	1442.7	1417.4	1392.4	1366.2
x1 = 0.4984	1100.02	1092.8	1085.55	1078.03	1484.2	1459.2	1434.3	1409.9
x1 = 0.5931	1122.42	1115.36	1108.06	1100.95	1515.9	1491	1466.4	1442.2
x1 = 0.691	1141.63	–	1127.5	1120.36	1543.7	–	1494.9	1471.2
x1 = 0.8022	1159.85	–	1145.95	1138.97	1566.2	–	1517.2	1493.8
x1 = 0.8923	1172.56	–	1158.84	1151.94	1582.6	–	1534.7	1511.3
x1 = 0.9517	1180.05	–	1166.44	1159.62	1591.7	–	1543.7	1519.5

CCCC[n+]1cccc(C)c1.F[B-](F)(F)F [1-butyl-3-methylpyridinium tetrafluoroborate] + CO
Conditions	mass density, 293.15 K [kg/m3]	mass density, 303.15 K [kg/m3]	mass density, 313.15 K [kg/m3]	mass density, 323.15 K [kg/m3]	speed of sound, 293.15 K [m/s]	speed of sound, 303.15 K [m/s]	speed of sound, 313.15 K [m/s]	speed of sound, 323.15 K [m/s]
x1 = 0.0481	876.902	868.149	858.994	850.146	1203.1	1173.4	1143.9	1114.7
x1 = 0.1001	940.659	932.121	923.594	915.022	1271	1243.3	1215.7	1188.3
x1 = 0.1548	988.767	980.512	972.213	964.125	1330.9	1304.2	1277.6	1251.7
x1 = 0.2003	1019.3	1011.19	1003.35	995.225	1370	1344	1318.1	1292.4
x1 = 0.2487	1045.53	1037.61	1029.56	1021.63	1407.2	1381.6	1356	1330.8
x1 = 0.297	1066.65	1058.61	1050.84	1042.82	1433.6	1408.1	1382.9	1358
x1 = 0.4013	1101.04	1093.31	1085.48	1077.9	1482.7	1457.9	1433	1415
x1 = 0.4969	1123.82	1116.42	1108.81	1101.29	1514.2	1489.3	1464.9	1443.1
x1 = 0.5974	1142.04	1134.73	1127.47	1120.24	1538.7	1514.1	1489.9	1466.2
x1 = 0.6972	1156.18	1149.17	1142.08	1135	1557.9	1533.5	1509.5	1485.8
x1 = 0.8437	1172.39	1165.51	1158.69	1151.77	1580.4	1556.2	1532.6	1509.2
x1 = 0.8984	1177.43	1170.57	1163.79	1156.96	1587.2	1562.8	1539.3	1516
x1 = 0.9692	1183.29	1176.48	1169.74	1162.98	1595.6	1571.3	1547.5	1524.5

CCCC[n+]1ccc(C)cc1.F[B-](F)(F)F [1-butyl-4-methylpyridinium tetrafluoroborate] + CCO
Conditions	mass density, 293.15 K [kg/m3]	mass density, 303.15 K [kg/m3]	mass density, 313.15 K [kg/m3]	mass density, 323.15 K [kg/m3]	speed of sound, 293.15 K [m/s]	speed of sound, 303.15 K [m/s]	speed of sound, 313.15 K [m/s]	speed of sound, 323.15 K [m/s]
x1 = 0.0507	854.988	846.802	838.56	830.183	1206.5	1176.7	1147.1	1117.3
x1 = 0.1	904.491	896.578	888.401	880.152	1246.2	1219	1189.9	1162.1
x1 = 0.1971	976.866	969.284	961.403	953.269	1321.9	1296.3	1268.9	1240.4
x1 = 0.2912	1026.69	1019.31	1011.46	1003.86	1384.8	1359.2	1333.8	1308.5
x1 = 0.3903	1066.1	1058.84	1051.3	1043.95	1440.8	1415	1389.7	1364.8
x1 = 0.4876	1096.19	1088.98	1081.75	1074.66	1483.8	1457.9	1432.5	1408
x1 = 0.5825	1119.75	1112.72	1105.58	1098.5	1522.5	1496.8	1471.7	1446.7
x1 = 0.6879	1141.24	1134.29	–	1120.3	1548.5	1525.3	1499.5	1475.8
x1 = 0.7938	1159.02	1152.18	1145.03	1138.28	1576.1	1556	–	1502.9
x1 = 0.8927	1173	1166.2	1159.13	1152.42	1594.2	1569.1	–	1522.3
x1 = 0.9284	1177.54	1170.73	1163.69	1157	1601.9	1579.3	–	1530.5

CCCC[n+]1ccc(C)cc1.F[B-](F)(F)F [1-butyl-4-methylpyridinium tetrafluoroborate] + CO
Conditions	mass density, 293.15 K [kg/m3]	mass density, 303.15 K [kg/m3]	mass density, 313.15 K [kg/m3]	mass density, 323.15 K [kg/m3]	speed of sound, 293.15 K [m/s]	speed of sound, 303.15 K [m/s]	speed of sound, 313.15 K [m/s]	speed of sound, 323.15 K [m/s]
x1 = 0.0507	881.091	872.29	863.158	854.017	1208.6	1178.1	1148.1	1119.5
x1 = 0.0989	939.26	930.783	922.085	–	1271.8	1242.3	1214.2	–
x1 = 0.1922	1013.58	1005.46	997.343	989.026	1364.3	1337.8	1311.3	1289
x1 = 0.2934	1064.12	1056.34	1048.54	1040.72	1433.1	1409.5	1381.4	1361.5
x1 = 0.3877	1096.33	1088.9	1081.21	1073.75	1479.9	1455.9	1431.2	1407.8
x1 = 0.4839	1120.56	1113.33	1105.85	1098.72	1517	1490.9	1464.4	1439.8
x1 = 0.5909	1140.92	1133.83	1126.57	1119.63	1546.9	1521.3	1494.6	1471.5
x1 = 0.6925	1155.91	1148.93	1141.79	1134.99	1568.3	1543.5	1518.2	1494.6
x1 = 0.8001	1168.52	1161.62	1154.59	1147.87	1587.9	1563.2	1538.4	1516
x1 = 0.9042	1178.4	1171.56	1164.56	1157.92	1602.5	1577.6	1553.6	1531.3
x1 = 0.9535	1182.44	1175.62	1168.62	1162.01	1607.8	1583.1	1558.9	1536.3
